Among the data in BindingDB's records for doi:10.1021/acsmedchemlett.8b00149 (Merck, 2018) are EC50 values, retold here.

Structures are written as SMILES. pEC50: −log10 of the molar value.

The experiment concerns the target Free fatty acid receptor 1 (Homo sapiens, UniProt O14842). In words: Agonist activity at recombinant human GPR40 expressed in HEK293 cells assessed as increase in IP1 accumulation measured after 60 mins by HTRF assay.

Sequence of Free fatty acid receptor 1 (O14842 whole entry): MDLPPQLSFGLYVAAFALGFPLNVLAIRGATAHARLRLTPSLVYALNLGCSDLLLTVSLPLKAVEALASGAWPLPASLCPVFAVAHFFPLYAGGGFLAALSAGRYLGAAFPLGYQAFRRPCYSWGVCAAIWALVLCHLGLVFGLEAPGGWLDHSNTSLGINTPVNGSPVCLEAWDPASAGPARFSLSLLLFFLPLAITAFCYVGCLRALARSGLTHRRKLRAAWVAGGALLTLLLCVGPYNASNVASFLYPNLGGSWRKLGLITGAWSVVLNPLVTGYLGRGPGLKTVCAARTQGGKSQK

On to `COc1cc(-c2cnc(C3CCc4ccc([C@H](C5CC5)[C@H](C)C(=O)O)cc4O3)c(F)c2)c(F)cn1` (stereo partly specified), for which the negative-log EC50 (pEC50) (as a rule, the EC50 on a negative log10 scale, so that one unit is a factor of ten) was 8.80.
